Assay results reported in patent US7547708B2, “N-sulfamoyl-N′-benzopyranpiperidine compounds and uses thereof” (Solvay Pharmaceuticals, Inc., priority 2005, dated 2009).

Columns and labels:
C57BI/6 mice = assay: Acute in vivo food intake test in mice; settings: 24 h food intake, C57BI/6 mice on high caloric diet, 100 mg/kg/day by oral gavage in two half doses
Method: 2. Acute in vivo Food Intake Test in Mice
The studies were carried out in male or female C57BI/6 mice (n=8-12 per group). The mice were kept on an inverted 12/12 h light/dark cycle (lights on 22:00). They were allowed food (high caloric diet) and water ad libitum. Food intake and water consumption was measured daily. The test compound of general Formula I was suspended in 1% methylcellulose in water and 2% (v/v) of Poloxamer 188 (Lutrol F68®) and administered by oral gavage at a dose of 100 mg/kg/day. One half of the dose was administered at 7.00-9.00 h; the remaining half of the dose was administered between 15.00-15.30 h.
In the test model described above, the test substances caused a decrease of the animals' 24 h food intake to the percentages of food intake when compared to control as given in the following Table 2.

[1] = molecular target: T1, human carbonic anhydrase isoenzyme II (hCA II) (Homo sapiens, UniProt P00918); assay: In vitro inhibition of human carbonic anhydrase isoenzyme II (dansylamide fluorescence); format: binding; settings: hCA II from erythrocytes 10^-7 M, dansylamide 2.25x10^-6, 60 min at 37° C., single measurements; read-out: hCA II inhibiting effect in vitro, IC50
T1 construct: human carbonic anhydrase isoenzyme II from erythrocytes (Sigma-Aldrich); purchased Sigma-Aldrich; host or cells: human erythrocytes (natural source)
Method: 1. In vitro Inhibition of Human Carbonic Anhydrase Isoenzyme II (hCA II)
The test compounds of general Formula I in 96 well microplates were diluted with aqua bidest by using an automatic pipettor (CyBiWell®). From the different dilution plates, aliquots of 20 μl were transferred to the 96 well black assay plates with a pipetting station (Tecan Genesis®). In a second step, 148 μl of potassium phosphate buffer (20 mM, pH 7.4) was added, and as a third step, 20 μl of enzyme solution (1 μM human carbonic anhydrase isoenzyme II from erythrocytes (Sigma-Aldrich), dissolved in potassium phosphate buffer) incubated for 60 min at room temperature and the fluorescence signal (Tecan Ultra® fluorescence reader; excitation wavelength: 280 nm; emission wavelength: 465 nm) read at the end of the preincubation period (FLU-1). After the preincubation time, 20 μl of aqueous dansylamide solution (1 mM dansylamide (Sigma-Aldrich), dissolved in hydrochloric acid) were added and the fluorescence signal read every 10 min for a period of 60 min at 37° C. For calculation, the fluorescence data of the time point 60 min (FLU-2) were used. The total volume of assay mixture amounted to 208 μl. The final concentration of carbonic anhydrase II was 10^−7 M/L, of dansylamide 2.25×10^−6 and of compounds from 10^−8 M/L up to 10^−5 M/L. Final concentration of DMSO as compound solvent was 0.1 mM. Each microplate also contained blanks without compound and enzyme, controls without compound and ethoxzolamide (final concentration 5×10^−8 M/L). All data reflect single measurements. Data were expressed as % inhibition after calculation by the formula: % inhibition=100((1−(FLU-2cpd−FLU-2blank−FLU-1cpd+FLU-1blank)/(FLU-2control−FLU-2blank−FLU-1control−FLU-1blank))
The % inhibition data for each compound and the respective final concentrations were used for IC50 calculations by using the Prism 4 software. Concentration action figures were calculated by applying the Prism algorithm for nonlinear regression (curve-fit): sigmoidal dose response with variable slope and the constraints: top: 100 and bottom 0.

NS(=O)(=O)N1CCC2(CC1)CC(=O)c1ccccc1O2 [Example 1]
food intake [% of control] (C57BI/6 mice): 83 % of control
IC50 [1]: 6.6 µM
melting point: 172 to 174 °C

COc1ccc2c(c1)C(=O)CC1(CCN(S(N)(=O)=O)CC1)O2 [Example 3]
IC50 [1]: 7.7 µM
melting point: 172 to 177 °C

NS(=O)(=O)N1CCC2(CC1)CC(=O)c1cc(Cl)ccc1O2 [Example 4]
IC50 [1]: 6.4 µM
